# Test results: patent publication EP2875811A1, “Use of dobesilate for treating ocular haemorrhages” (priority 2013, dated 2015)
# Assays:
# submacular haemorrhage = assay type: in vivo, human
# Protocol: A person with a history of wet age-related macular degeneration (AMD) in both eyes developed a sudden vision decrease in the right eye. The best corrected visual acuity (BCVA) on presentation was of 0.05. […] Haemorrhage seems also result in the RPE detachment at some points (Fig 1D, asterisk). Intravitreal dobesilate was administered in the right eye, using a standard protocol. After approval of our Institution Ethical Committee, the patient signed an informed consent form, which included a comprehensive description of dobesilate and the proposed procedure. Patient received an intravitreal solution of dobesilate (150µl) under sterile conditions in their right eye, following the International Guidelines for intravitreal injections (Aiello LP et al. Retina. 2004; 24 (5 Suppl):S3-S19). Dobesilate was administered as a 12.5% solution of diethylammonium 2.5-dihydroxybenzenesulfonate (etamsylate; dicynone® Sanofi-Aventis. Paris. France).
# (§1) • Figure 1 Sequence of fundus photographs (A-D) and spectral-domain optical coherence tomography (SD-OCT) scans (D-F) of a patient with a moderate-sized submacular haemorrhage at baseline (A,D), and one (B,E) and two months (C,F) after a single intravitreal injection of dobesilate. Asterisk in D indicates retinal pigment epithelium (RPE) detachment. • Figure 2 Efficacy of intravitreal dobesilate injection to clear vitreous haemorrhage in a diabetic patient. A and C photographs were taken at presentation, and B and D after 3 days of treatment. […] Note in B the abnormal appearance of the pupil due to luxation of the lens. Arrow indicates paracentesis site.
# vitreous haemorrhage = assay type: in vivo, human
# Protocol: A 68 old-year type 2 diabetic man presented with intense vision loss in their right eye. […] Intraocular pressure was 50mmHg that was reduced to 14mmHg after a paracentesis procedure. After approval of the Institutional Ethics Committee, the patient signed an informed consent form, which included a comprehensive description of dobesilate and the proposed procedure. Patient received an intravitreal solution of dobesilate (150 µl) under sterile conditions, following the International Guidelines for intravitreal injections (Aiello LP et al. Retina. 2004; 24 (5 Suppl):S3-S19) in their right eye. Dobesilate was administered as a 12.5% solution of diethylammonium 2.5-dihydroxybenzenesulfonate (etamsylate, dicynone® Sanofi-Aventis. Paris. France).
# as §1, with “Arrow indicates paracentesis site.” left out
# [1] = person, right eye, intravitreal 150µl of 12.5% solution, along two months follow-up
smiles,measurement,setting,value
"O=S(=O)(O)c1cc(O)ccc1O [dobesilate, diethylammonium 2.5-dihydroxybenzenesulfonate]",ocular side effects,"submacular haemorrhage; human, in vivo",No ocular side effects were observed
same,SD-OCT scans: retinal architecture / RPE detachment,submacular haemorrhage; [1],progressive normalization of the retinal architecture with disappearance of RPE detachment
same,haemorrhage signs (fundus),submacular haemorrhage; [1],gradually disappeared
same,final BCVA (best corrected visual acuity),"submacular haemorrhage; person, right eye, intravitreal 150µl of 12.5% solution, two months follow-up, BCVA on presentation 0.05",0.50
same,Intraocular pressure,"vitreous haemorrhage; after treatment, pressure had been reduced from 50mmHg to 14mmHg by paracentesis before injection",maintained at normal level
same,ocular side effects,"vitreous haemorrhage; human, in vivo",No ocular side effects were observed
